Data reported in article PMC6837340, “Streptococcal phosphotransferase system imports unsaturated hyaluronan disaccharide derived from host extracellular matrices” (PLoS ONE, 2019).

Tests used:
[1] = target: T1, GAG-PTS (EIIABCD; phosphotransferase system for import of unsaturated hyaluronan disaccharide) (Streptococcus agalactiae, UniProt Q8DXF2+Q8DXF3); test: PTS assay: pyruvate from phosphoenolpyruvate, lactate dehydrogenase-coupled NADH oxidation at […] nm, toluene-treated cells; assay type: cell-based; details: 10 mM sugar, 5 mM phosphoenolpyruvate, 5 mM MgCl2, 10 mM NaF, 0.1 M potassium phosphate pH 7.5, 37°C; EIIB-EIIC-EIID deletion mutant as control
T1 construct: gene SAG1899; native complex in toluene-permeabilized wild-type S. agalactiae cells; endogenous EI and HPr also required; EIIA dimer in crystal, 144 residues; with PTS mannose family transporter subunit IIA (EIIA)

[2] = target: the molecule itself; test: crystal structure; sitting drop vapor diffusion, 20% PEG 3,350, 0.2 M sodium thiocyanate pH 6.9, 20°C; space group P1, six molecules in the asymmetric unit; biological unit judged a dimer with PISA software

T1 sequence (Q8DXF1 entry or part of it, one chain of several, further chain): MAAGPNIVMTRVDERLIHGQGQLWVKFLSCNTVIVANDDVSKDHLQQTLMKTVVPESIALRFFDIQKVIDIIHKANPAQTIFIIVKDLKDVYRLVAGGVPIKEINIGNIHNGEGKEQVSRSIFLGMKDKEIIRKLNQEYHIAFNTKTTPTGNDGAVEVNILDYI
T1 sequence (Q8DXF2 entry or part of it, one chain of several): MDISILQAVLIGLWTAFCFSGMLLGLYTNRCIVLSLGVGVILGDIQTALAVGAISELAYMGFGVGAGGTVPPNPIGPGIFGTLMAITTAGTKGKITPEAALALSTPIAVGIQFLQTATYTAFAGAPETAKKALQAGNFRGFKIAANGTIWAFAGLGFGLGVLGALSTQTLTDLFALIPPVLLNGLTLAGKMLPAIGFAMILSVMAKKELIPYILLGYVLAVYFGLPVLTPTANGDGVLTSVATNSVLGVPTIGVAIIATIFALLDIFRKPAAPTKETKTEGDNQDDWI
T1 sequence (Q8DXF3 entry or part of it, one chain of several): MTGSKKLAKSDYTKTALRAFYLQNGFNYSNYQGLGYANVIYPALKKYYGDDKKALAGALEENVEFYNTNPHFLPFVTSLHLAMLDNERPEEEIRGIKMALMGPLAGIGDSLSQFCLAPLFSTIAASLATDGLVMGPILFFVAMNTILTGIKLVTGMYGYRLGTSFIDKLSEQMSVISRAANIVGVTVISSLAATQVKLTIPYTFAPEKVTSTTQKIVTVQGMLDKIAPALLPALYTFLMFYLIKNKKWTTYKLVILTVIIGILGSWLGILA

Row | Molecule | PTS assay: pyruvate from phosphoenolpyruvate, lactate dehydrogenase-coupled NADH [1] | stoichiometry N [2]
1 | CC(=O)N[C@H]1C(O)O[C@H](CO)[C@@H](O)[C@@H]1O[C@@H]1OC(C(=O)O)=C[C@H](O)[C@H]1O (some centres unmarked) [ΔHA, unsaturated hyaluronan disaccharide] | S. agalactiae imports unsaturated hyaluronan disaccharide using the GAG-PTS encoded in the GAG genetic cluster | 
2 | Streptococcus agalactiae GAG-PTS EIIA^ΔHA (EIIA for unsaturated hyaluronan disaccharide) (natural protein, PTS EIIA component of the GAG genetic cluster, gene gbs1890, Streptococcus agalactiae (gbs = strain NEM316); 144 residues (Met1-Ile144); Leu131-Ile144 not seen in the crystal structure; Cloned between NdeI and XhoI of pET21b with a reverse primer without a stop codon, so a C-terminal vector-derived His tag is likely (surmised); No PDB id is printed for the structure solved here; also called …) MIKIIIVAHGNFPDGILSSLELIAGHQEYVVGINFIAGMSSNDVRVALQREVIDFKEILVLTDLLGGTPFNVSSALSVEYTDKKIKVLSGLNLSMLMEAVLSRTMFEHVDDLVDKVITSSHEGIVDFSTCLATQTAEATFEGGI |  | 2
